Key:
[1] = system: VEGFR receptors (VEGFR1 and VEGFR2), p-VEGFR2, VEGF; test: Western blot of the VEGF pathway in differentiated (healthy) ARPE-19 cells; format: cell-based, human; settings: differentiated ARPE-19, 24 h, 20 μM resveratrol (R20)
Method: The protocol used is the same as the one described in the example II-2, except for the cells studied: Cells studied: culture of differentiated ARPE-19 (human retinal pigment epithelium) cells. The undifferentiated cells are seeded in T75 flasks. The cells are maintained at 37° C., and in the presence of 5% CO2 in the medium DMEM/F12 (GIBCO; 31331), completed with 10% FBS (Lonza) and 15 mM HEPES (pH 7.4; GIBCO). When the cells reach confluence, the medium is replaced by DMEM/F12 (GIBCO; 31331), completed with 1% FBS (Lonza) and HEPES (15 mM pH 7.4; GIBCO). The media were changed 2 times per week for 8 weeks. Said cells can be equated with undamaged or healthy retinal cells.

VEGF [2] = settings: in vitro, human retinal pigmentary epithelium cells (HRPE cells); cited from earlier work
[3] = system: VEGFR receptors (VEGFR1 and VEGFR2), p-VEGFR2, VEGF; test: Western blot of the VEGF pathway in undifferentiated (pathological) ARPE-19 cells; format: cell-based, human; settings: undifferentiated ARPE-19, 24 h, 20 μM resveratrol (R20) or equivalent (A20)
Method: Cells studied: culture of undifferentiated ARPE-19 (ATCC® CRL-2302™) (human retinal pigment epithelium) cells.
The cells were maintained at 37° C., and in the presence of 5% CO2 in the medium DMEM/F12 (GIBCO; 31331), completed with 10% FBS (Lonza) and 15 mM HEPES (pH 7.4; GIBCO).
b) Incubation Between the Compositions (Formula A or B) and the Cells: 1, 5, 10 or 20 μM.
The 10 μM equivalent from formula B also corresponding to 0.115 mg/mL of formula B in DMEM/F12+1% FBS w/o phenol red.
The day prior to treatment, the medium was eliminated and replaced by DMEM/F12 without phenol red (GIBCO; 21041), completed with 1% FBS (Lonza) and 15 mM HEPES (pH 7.4; GIBCO).
After 24 h of stimulation, the media were eliminated, the cells were washed with PBS 1× then scrubbed in PBS 1×. The cells were centrifuged and the remainder was resuspended in the RIPA buffer along with a cocktail of protease inhibitors (Roche) and phosphatase inhibitors. The cells were lysed in ice for 30 minutes, then centrifuged. The protein concentration was determined by means of a protein quantification kit (Lowry kit, biorad). […] The membranes were again washed 3 times in 0.1% PBS-T and the signal was detected by ECL (Tebu bio). The images were recorded with the ChemiDoc imaging system and analyzed with Quantity One Software (Biorad) software.
The β-actin was also quantified in order to relativize the levels of expression.

VEGF [4] = settings: wet form of AMD, repeated intravitreal injections; cited from earlier work

Molecule: Oc1ccc(/C=C/c2cc(O)cc(O)c2)cc1 [resveratrol]
- effect on VEGF receptors of healthy cells, resveratrol alone [1]: has no effect on healthy cells
- overexpression of VEGF induced by cytokines (VEGF [2]): inhibiting in vitro the overexpression of VEGF
- expression of VEGF receptors, resveratrol alone versus composition [3]: makes it possible to reduce the expression of VEGF receptors

Molecule: pegaptanib
- effect of the treatment (VEGF [4]): little effect

B1: ranibizumab: VEGF inhibitor used since 2007 for the wet form of AMD (antibody, chains of the INN, looked up, V domains shown)
VH: EVQLVESGGGLVQPGGSLRLSCAASGYDFTHYGMNWVRQAPGKGLEWVGWINTYTGEPTYAADFKRRFTFSLDTSKSTAYLQMNSLRAEDTAVYYCAKYPYYYGTSHWYFDVWGQGTLVTVSS
VL: DIQLTQSPSSLSASVGDRVTITCSASQDISNYLNWYQQKPGKAPKVLIYFTSSLHSGVPSRFSGSGSGTDFTLTISSLQPEDFATYYCQQYSTVPWTFGQGTKVEIK
modifications: Fab
- unresponsive or no longer responsive to the treatment (VEGF [4]): about 30%
